Data published in patent US11497701B2, “Multi-functional anti-microbial polymers and compositions containing same” (priority 2015, dated 2022).

What was measured:
Bacillus cereus = assay: Antibacterial susceptibility disc test (rings of inhibition); assay type: cell-based; conditions: disc on Mueller-Hinton plate, 18-24 hrs at 37° C.; polymers 100 μg per disc, control discs at given load; NI = No Inhibition
Experimental: (§1) Compounds were tested for antibacterial activity, as described in Ma et al. (2011), against pure cultures of Escherichia coli, Pseudomonas aeruginosa, Bacillus cereus, Proteus mirabilis/hauseri, and Staphylococcus aureus, supplied by Ward's Natural Science Ltd. (St. Catherines, Ontario, Canada). All cultures were maintained on Tryptic Soy agar. These cultures were then transferred using an inoculation loop to 10 mL of Tryptic soy broth, and grown at 37° C. for 24 hours. Triplicates of plate and broth cultures were made in case of error or contamination. Using a sterile swab, and aseptic techniques, the bacterial broth inocula were transferred to Mueller-Hinton plates and spread evenly, ensuring that the entire surface was inoculated. They were then left to dry for 3-5 minutes. The following control discs were used: Penicillin (10 μg), Tetracycline (30 μg), Chloramphenicol (30 μg), and Ampicillin (10 μg). Four antibiotic discs containing different compounds were placed equidistant from each other on a Mueller-Hinton plate. Each compound had three replicates per species. Plates were incubated for 18-24 hrs at 37° C., and then observed for rings of inhibition. If clear rings of inhibition were present, the diameter was measured twice using a caliper. […] Each polymer was applied to sterile filter paper discs as a solution (15 mg of compound in 3 mL of solvent). Each disc received 20 μL of solution, and was allowed to dry, giving a final concentration of 100 μg of compound per disc.

[1] = system: Proteus mirabilis/hauseri; assay: as above; assay type: cell-based; conditions: disc on Mueller-Hinton plate, 18-24 hrs at 37° C.; polymers 100 μg per disc, control discs at given load; NI = No Inhibition
Experimental: as §1

Pseudomonas aeruginosa = assay: as above; assay type: cell-based; conditions: disc on Mueller-Hinton plate, 18-24 hrs at 37° C.; polymers 100 μg per disc, control discs at given load; NI = No Inhibition
Experimental: as §1

Staphylococcus aureus = assay: as above; assay type: cell-based; conditions: disc on Mueller-Hinton plate, 18-24 hrs at 37° C.; polymers 100 μg per disc, control discs at given load; NI = No Inhibition
Experimental: as §1

Escherichia coli = assay: as above; assay type: cell-based; design: unit not given here; conditions: NI = No Inhibition; for diameter of ring of inhibition, E. coli (Table 5): all 10 μg; for diameter of ring of inhibition, E. coli: disc on Mueller-Hinton plate, 18-24 hrs at 37° C., polymers 100 μg per disc, control discs at given load
Experimental: as §1

[2] = Viscosity measurements (Brookfield Synchrolectric viscometer model LVF); assay type: physicochemical; conditions: 1% weight solution in distilled water, pH 7 and 25° C.
Experimental: The values in centi-poise (mPa·s, m=milli) were calculated as per the specifications set out by the instrument manufacturer.
The viscosity of the compositions described in Example 5, were also similarly measured, as well as 1% wt. solutions of pure BAC and hp-AETA.

Aspergillus fumigatus = assay: Antifungal susceptibility disc test (rings of inhibition); assay type: cell-based; conditions: disc on Sabouraud plate, 18-24 hrs at 35° C.; polymers 100 μg per disc, Amphotericin B 20 μg; NI = No Inhibition
Experimental: (§2) Each polymer was applied to sterile filter paper discs as a solution (15 mg of compound in 3 mL of solvent). Each disc received 20 μL of solution, and was allowed to dry, giving a final concentration of 100 μg of compound per disc. Adapted from Messer et al., (2007), this protocol was used to test novel compounds for antifungal properties against yeasts and fungi. Compounds were tested for antifungal activity against pure cultures of Saccharomyces cerevisiae, Candida albicans supplied by Ward's Natural Science Ltd. and Aspergillus niger and Aspergillus fumigatus supplied by […]. (Inverness Medical, Ottawa, Ontario, Canada). All cultures were maintained on Sabouraud agar. […] The cultures of A. niger and A. fumigatus were transferred, using an inoculation loop, to new Sabouraud agar and grown for 48 hrs. at 27° C., and 35° C. respectively, to cause sporulation. Triplicates of all the plates and broth cultures were made in case of error or contamination. Using a sterile swab, and aseptic techniques, the cell suspension of S. cerevisiae, and C. albicans were transferred to Sabouraud agar plates and spread evenly, ensuring that the entire surface was inoculated. They were then left to dry for 10 minutes. From the plates containing A. niger and A. fumigatus two small circles containing fungal growth of the A Niger or A Fumigatus fungi were cut from the agar plates, and using a glass/PTFE tissue homogenizer, were mixed and homogenized with 5 ml of sterile MilliQ water to create a suspension of fungal spores. Using a sterile swab, and aseptic techniques, the spore inocula of A. niger and A. fumigatus were transferred to Sabouraud agar plates and spread evenly, ensuring that the entire surface was inoculated. They were then left to dry for 10 minutes. Amphotericin B (20 μg) premade discs were used as a control. Three antibiotic discs containing different compounds were place equidistant apart on each Sabouraud plate. Each compound had three replicates per species. Plates containing S. cerevisiae, and C. albicans were incubated for 18-24 hrs at 37° C., A. niger for 48 hrs at room temperature, and A. fumigatus for 18-24 hrs at 35° C. […] If clear rings of inhibition were present, the diameter was measured twice using a caliper. Halos indicated partial inhibition of growth (Hicks et al., 2008).

Aspergillus niger = assay: as above; assay type: cell-based; conditions: disc on Sabouraud plate, 48 hrs at room temperature; polymers 100 μg per disc, Amphotericin B 20 μg; NI = No Inhibition
Experimental: as §2

Saccharomyces cerevisiae = assay: as above; assay type: cell-based; conditions: disc on Sabouraud plate, 18-24 hrs at 37° C.; polymers 100 μg per disc, Amphotericin B 20 μg; NI = No Inhibition
Experimental: as §2

Candida albicans = assay: as above; assay type: cell-based; conditions: disc on Sabouraud plate, 18-24 hrs at 37° C.; polymers 100 μg per disc, Amphotericin B 20 μg; NI = No Inhibition
Experimental: as §2

Row | Compound | diameter of ring of inhibition, B. cereus (Bacillus cereus) | diameter of ring of inhibition, P. hauseri [1] | diameter of ring of inhibition, P. aeruginosa (Pseudomonas aeruginosa) | diameter of ring of inhibition, S. aureus (Staphylococcus aureus) | diameter of ring of inhibition, E. coli (Table 5) (Escherichia coli) | diameter of ring of inhibition, E. coli (Escherichia coli) | viscosity [2] [mPa·s] | diameter of ring of inhibition, A. fumigatus (Aspergillus fumigatus) | diameter of ring of inhibition, A. niger (Aspergillus niger) | diameter of ring of inhibition, S. cerevisiae (Saccharomyces cerevisiae) | diameter of ring of inhibition, C. albicans (Candida albicans)
1 | CN(C)[C@@H]1C(O)=C(C(N)=O)C(=O)[C@@]2(O)C(O)=C3C(=O)c4c(O)cccc4[C@@](C)(O)[C@H]3C[C@@H]12 [Tetracycline] | 20.3 | 13.7 | 9.9 | 24.7 | 25.3 | 20.4 | – | – | – | – | –
2 | O=C(N[C@H](CO)[C@H](O)c1ccc([N+](=O)[O-])cc1)C(Cl)Cl [Chloramphenicol] | 26.3 | 14.4 | 21.5 | 24.1 | 17.4 | 19.4 | – | – | – | – | –
3 | Benzalkonium chloride [BAC] | – | – | – | – | – | – | 3.1 | – | – | – | –
4 | CC1(C)S[C@@H]2[C@H](NC(=O)[C@H](N)c3ccccc3)C(=O)N2[C@H]1C(=O)O [Ampicillin] | 13.5 | 11 | 10.2 | 40.4 | 15.4 | 15.0 | – | – | – | – | –
5 | Penicillin | – | 19 | 7.0 | 43.8 | 19.5 | 19.5 | – | – | – | – | –
6 | C[C@@H]1[C@H](O)[C@@H](C)/C=C/C=C/C=C/C=C/C=C/C=C/C=C/[C@H](O[C@@H]2O[C@H](C)[C@@H](O)[C@H](N)[C@@H]2O)C[C@@H]2O[C@](O)(C[C@@H](O)C[C@@H](O)[C@H](O)CC[C@@H](O)C[C@@H](O)CC(=O)O[C@H]1C)C[C@H](O)[C@H]2C(=O)O [Amphotericin B] | – | – | – | – | – | – | – | 12.5 | 15.5 | 8.39 | 13.6
